Laboratory results: ChEMBL document CHEMBL1201862, “PubChem BioAssay data set” (2004)
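All cell lines were grown in 96-well plates and treated with compound for 48 hours. At the GI50, growth is halved.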 Active and inactive are the calls of the source. No stated cut-off is given here; in the data, active = GI50 up to about 1.1 µM and inactive = higher.

Assays:
Experiment in all cases: NCI anticancer screen, dose series, 48 h
T47D = test system: T47D
SF-539 = test system: SF-539
Malme-3M = test system: Malme-3M
SF-268 = test system: SF-268
NCI-H522 = test system: NCI-H522
UACC-257 = test system: UACC-257
HCT-116 = test system: HCT-116
KM12 = test system: KM12
OVCAR-4 = test system: OVCAR-4
M14 = test system: M14
MDA-N = test system: MDA-N
IGROV-1 = test system: IGROV-1
CAKI-1 = test system: CAKI-1
SK-OV-3 = test system: SK-OV-3
HOP-62 = test system: HOP-62
SK-MEL-5 = test system: SK-MEL-5
SNB-19 = test system: SNB-19
ACHN = test system: ACHN
U-251 = test system: U-251

Compound | GI50 (T47D) | GI50 (SF-539) | GI50 (Malme-3M) | GI50 (SF-268) | GI50 (NCI-H522) | GI50 (UACC-257) | GI50 (HCT-116) | GI50 (KM12) | GI50 (OVCAR-4) | GI50 (M14) | GI50 (MDA-N) | GI50 (IGROV-1) | GI50 (CAKI-1) | GI50 (SK-OV-3) | GI50 (HOP-62) | GI50 (SK-MEL-5) | GI50 (SNB-19) | GI50 (ACHN) | GI50 (U-251)
O=CCC1CCCCC1 | > 100 µM (inactive) | > 100 µM (inactive) | > 100 µM (inactive) | > 100 µM (inactive) | > 100 µM (inactive) | > 100 µM (inactive) | > 100 µM (inactive) | 88.7 µM (inactive) | > 100 µM (inactive) | > 100 µM (inactive) | > 100 µM (inactive) | > 100 µM (inactive) | > 100 µM (inactive) | > 100 µM (inactive) | > 100 µM (inactive) | > 100 µM (inactive) | > 100 µM (inactive) | > 100 µM (inactive) | 
Cc1cc(S(=O)(=O)N=C2NCC(C)(C)CN2)c(S)cc1Cl | 42.1 µM (inactive) | 40.6 µM (inactive) | 44.7 µM (inactive) | 73.3 µM (inactive) | 27.9 µM (inactive) | 42.3 µM (inactive) | 27.5 µM (inactive) | 30.8 µM (inactive) | 17.6 µM (inactive) | 31.9 µM (inactive) | 22.2 µM (inactive) | 38.9 µM (inactive) | 52 µM (inactive) | > 100 µM (inactive) | 52.6 µM (inactive) | 17.2 µM (inactive) | 36.6 µM (inactive) | 24.1 µM (inactive) | 23.7 µM (inactive)
O=C(NC(Nc1ccc(F)c(Cl)c1)(C(F)(F)F)C(F)(F)F)C(C(F)(F)F)C(F)(F)F | 44.3 µM (inactive) | 22.6 µM (inactive) | 19.1 µM (inactive) | 29.1 µM (inactive) | 16.8 µM (inactive) | 32.7 µM (inactive) | 16 µM (inactive) | 17.9 µM (inactive) | 29 µM (inactive) | 21.9 µM (inactive) | 28.5 µM (inactive) | 13.4 µM (inactive) | 32.4 µM (inactive) | 52.7 µM (inactive) | > 100 µM (inactive) | 21.4 µM (inactive) | 30.9 µM (inactive) | 13.5 µM (inactive) | 29.2 µM (inactive)
NCCc1ccc(S(=O)(=O)O)cc1[N+](=O)[O-] | > 100 µM (inactive) | > 100 µM (inactive) | > 100 µM (inactive) | > 100 µM (inactive) | > 100 µM (inactive) | > 100 µM (inactive) | > 100 µM (inactive) | > 100 µM (inactive) | > 100 µM (inactive) | > 100 µM (inactive) | > 100 µM (inactive) | > 100 µM (inactive) | > 100 µM (inactive) | > 100 µM (inactive) | > 100 µM (inactive) | > 100 µM (inactive) | > 100 µM (inactive) | > 100 µM (inactive) | > 100 µM (inactive)
O=C(O)C(Oc1nc(S)nc(S)n1)(c1ccc(Cl)cc1)c1ccc(Cl)cc1 | > 100 µM (inactive) | > 100 µM (inactive) | > 100 µM (inactive) | > 100 µM (inactive) | > 100 µM (inactive) | > 100 µM (inactive) | > 100 µM (inactive) | > 100 µM (inactive) | > 100 µM (inactive) | > 100 µM (inactive) | > 100 µM (inactive) | > 100 µM (inactive) | > 100 µM (inactive) | > 100 µM (inactive) | > 100 µM (inactive) | > 100 µM (inactive) | > 100 µM (inactive) | > 100 µM (inactive) | > 100 µM (inactive)
CC(NCc1c(O)ccc2c(-c3ccccc3)cc(=O)oc12)C(=O)O (configuration not stated) | > 100 µM (inactive) | > 100 µM (inactive) | > 100 µM (inactive) | > 100 µM (inactive) | > 100 µM (inactive) | > 100 µM (inactive) | > 100 µM (inactive) | > 100 µM (inactive) | > 100 µM (inactive) | > 100 µM (inactive) | > 100 µM (inactive) | > 100 µM (inactive) | > 100 µM (inactive) | > 100 µM (inactive) | > 100 µM (inactive) | > 100 µM (inactive) | > 100 µM (inactive) | > 100 µM (inactive) | > 100 µM (inactive)
CC(O)c1cc2c(s1)C(=O)c1scc(C(C)O)c1C2=O (configuration not stated) | 1.95 µM (inactive) | 0.23 µM (active) | 0.172 µM (active) | 0.28 µM (active) | 0.628 µM (active) | 0.176 µM (active) | 0.659 µM (active) | 1.79 µM (inactive) | 0.745 µM (active) | 0.19 µM (active) | 0.186 µM (active) | 1.68 µM (inactive) | 1.01 µM (active) | 2.64 µM (inactive) | 0.973 µM (active) | 0.156 µM (active) | 0.667 µM (active) | 0.853 µM (active) | 0.419 µM (active)
